Measurements from article PMC12810539, “EGFR-targeted gadolinium contrast agents for enhanced molecular magnetic resonance imaging of tumors” (The Journal of Biological Chemistry, 2025).

System: MDA-MB-231 and U138 MG cells
Assay: Laser scanning confocal fluorescence microscopy of cellular uptake
Assay type: cell-based, human
Details: for Cy5.5 fluorescence intensity in MDA-MB-231 cells versus U138MG cells: 0.3 μM Cy5.5 equivalent, 1 h, 37 °C, confocal microscopy; for effect of C225 preincubation on cellular fluorescence: C225 preincubation 12 h, then agent for 1 h, MDA-MB-231 and U138 MG cells
Experimental: To investigate the intracellular distribution of EBP-Gd-DO3A in cells with different levels of EGFR expression, MDA-MB-231 and U138 MG cells were seeded on glass coverslips in 24-well plates (5 × 10^4 cells per well). After 24 h, the cells were washed twice with serum-free medium, treated with 0.3 μM Cy5.5 or Cy5.5-EBP-Gd-DO3A (concentration of equivalent Cy5.5), and incubated at 37 °C for 1 h. Following incubation, cells were washed three times with PBS (pH 7.4) to remove unbound probes and were stained with 4′,6-diamidino-2-phenylindole (DAPI) (Sigma-Aldrich) for 10 min and examined with a laser scanning confocal fluorescence microscope (Leica, TCS SP8) with a 40 × objective lens. The fluorescence signals from Cy5.5 and its conjugates were visualized at λex = 680 nm and λem = 710 nm, while the fluorescence signals of DAPI (nucleus) were performed at λex = 350 nm and λem = 460 nm. The laser power, illumination intensity, and exposure time were kept identical across all samples to ensure quantitative comparability. To further characterize the selective cellular uptake of the conjugate via the EGFR-mediated pathway, the cells were preincubated with C225 for 12 h at 37 °C before probe treatment. Following the removal of the pretreatment solution, the cells were washed with serum-free medium, treated with Cy5.5 or Cy5.5-EBP-Gd-DO3A conjugate, and incubated at 37 °C as described above. The cells were stained with DAPI and visualized using the laser scanning confocal fluorescence microscope, and the fluorescent intensity of the cells was analyzed using Image J.

Substance | Cy5.5 fluorescence intensity in MDA-MB-231 cells versus U138MG cells | effect of C225 preincubation on cellular fluorescence
CMYIEALDKYAC [Cy5.5-EBP-Gd-DO3A, Cy5.5-labelled EBP-Gd-DO3A conjugate for fluorescence microscopy] | much stronger | inhibited
Cy5.5 [reference compound] | the same | did not affect
